Measured values taken from patent publication US6737383B1, “Herbicidal oxadiazolidines” (priority 1999, dated 2004).

Key:
surinam grass = assay: Test B pre/postemergence surinam grass; assay type: in vivo, Brachiaria decumbens
Summary of the method: (§1)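 Herbicidal effect was estimated by eye on a ten-point control scale after plants spent twelve to sixteen days in a greenhouse following soil or foliar treatment. Foliar sprays targeted plants at one to four leaves; all doses were formulated in a non-phytotoxic solvent with surfactant.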

bedstraw = assay: Test B pre/postemergence bedstraw; assay type: in vivo, Galium aparine; settings: Postemergence
Summary of the method: as §1

bamyardgrass = assay: Test B flood test barnyardgrass; assay type: in vivo, Echinochloa crus-galli
Summary of the method: (§2)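 Plants were grown to the 2-leaf stage before treatment with test chemical, then held in a greenhouse for twelve to sixteen days. Injury was visually rated against untreated controls on a 0–10 scale, where 0 is no effect and 10 is complete control.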

pigweed = assay: Test B pre/postemergence pigweed; assay type: in vivo, Amaranthus retroflexus
Summary of the method: as §1

velvetleaf = assay: Test B pre/postemergence velvetleaf; assay type: in vivo, Abutilon theophrasti
Summary of the method: as §1

cocklebur = assay: Test B pre/postemergence cocklebur; assay type: in vivo, Xanthium strumarium
Summary of the method: as §1

crabgrass = assay: Test B pre/postemergence crabgrass; assay type: in vivo, Digitaria sanguinalis
Summary of the method: as §1

wild oat = assay: Test B pre/postemergence wild oat; assay type: in vivo, Avena fatua
Summary of the method: as §1

rape = assay: Test B pre/postemergence rape; assay type: in vivo, Brassica napus
Summary of the method: as §1

sugar beet = assay: Test B pre/postemergence sugar beet; assay type: in vivo, Beta vulgaris
Summary of the method: as §1

corn = assay: Test B pre/postemergence corn; assay type: in vivo, Zea mays
Summary of the method: as §1

blackgrass = assay: Test B pre/postemergence blackgrass; assay type: in vivo, Alopecurus myosuroides
Summary of the method: as §1

giant foxtail = assay: Test B pre/postemergence giant foxtail; assay type: in vivo, Setaria faberii
Summary of the method: as §1

rice = assay: Test B flood test rice; assay type: in vivo, Oryza sativa; settings: for Rice plant response rating: Postemergence section (flood test species)
Summary of the method: as §2

morningglory = assay: Test B pre/postemergence morningglory; assay type: in vivo, Ipomoea hederacea
Summary of the method: as §1

smallflower flatsedge = assay: Test B flood test smallflower flatsedge; assay type: in vivo, Cyperus difformis; settings: for S. Flatsedge plant response rating: Postemergence section (flood test species)
Summary of the method: as §2

[1] = Postemergence, Rate 250 g/ha, scale 0 to 10, 0 is no effect, 10 is complete control
[2] = Postemergence, Rate 500 g/ha, scale of 0 to 10 where 0 is no effect and 10 is complete control
[3] = Preemergence, Rate 62 g/ha, scale 0 to 10 (0 no effect, 10 complete control)
[4] = Preemergence, Rate 125 g/ha, scale of 0 to 10 where 0 is no effect and 10 is complete control
[5] = Preemergence, Rate 250 g/ha, scale of 0 to 10 where 0 is no effect and 10 is complete control
[6] = Rate 62 g/ha, Postemergence, scale of 0 to 10 where 0 is no effect and 10 is complete control
[7] = Rate 125 g/ha, Postemergence, scale 0 to 10, 0 is no effect, 10 is complete control
[8] = Rate 500 g/ha, scale of 0 to 10 where 0 is no effect and 10 is complete control
[9] = Rate 125 g/ha, scale 0 to 10, 0 is no effect, 10 is complete control
[10] = flood test species, listed under Postemergence, Rate 250 g/ha, scale 0 to 10, 0 is no effect, 10 is complete control
[11] = Preemergence, Rate 250 g/ha, scale 0 to 10, 0 is no effect, 10 is complete control
[12] = Preemergence, Rate 500 g/ha, scale 0 to 10, 0 is no effect, 10 is complete control

## CC(C)N(C(=O)n1oc(=O)n(C(CF)CF)c1=O)c1ccccc1 [Compound 421]
Surinam grass; [1]
  Plant response rating, B. signalgrass: 7
Surinam grass; [2]
  B. signalgrass plant response rating: 10
Surinam grass; [3]
  Plant response rating, B. signalgrass: 7
Surinam grass; [4]
  Plant response rating, B. signalgrass: 8
Surinam grass; [5]
  B. signalgrass plant response rating: 9
Surinam grass; Preemergence, Rate 500 g/ha, scale of 0 to 10 where 0 is no effect and 10 is complete control
  B. signalgrass plant response rating: 9
Surinam grass; [6]
  B. signalgrass plant response rating: 0
Surinam grass; [7]
  B. signalgrass plant response rating: 3
bedstraw; Rate 250 g/ha, scale 0 to 10, 0 is no effect, 10 is complete control
  Plant response rating, Bedstraw: 7
bedstraw; [8]
  Bedstraw plant response rating: 7
bedstraw; [9]
  Bedstraw plant response rating: 4
bamyardgrass; Postemergence section (flood test species), Rate 500 g/ha, scale of 0 to 10 where 0 is no effect and 10 is complete control
  Barnyardgrass plant response rating: 3
bamyardgrass; Rate 62 g/ha, Postemergence (flood test species), scale of 0 to 10 where 0 is no effect and 10 is complete control
  Barnyardgrass plant response rating: 0
bamyardgrass; Rate 125 g/ha, Postemergence section (flood test species), scale 0 to 10, 0 is no effect, 10 is complete control
  Barnyardgrass plant response rating: 0
bamyardgrass; [10]
  Plant response rating, Barnyardgrass: 2
pigweed; [1]
  Plant response rating, Redroot pigweed: 5
pigweed; [2]
  Redroot pigweed plant response rating: 8
pigweed; [3]
  Plant response rating, Redroot pigweed: 8
pigweed; [4]
  Plant response rating, Redroot pigweed: 10
pigweed; [11]
  Redroot pigweed plant response rating: 10
pigweed; [12]
  Redroot pigweed plant response rating: 10
pigweed; [7]
  Redroot pigweed plant response rating: 2
velvetleaf; [1]
  Plant response rating, Velvetleaf: 4
velvetleaf; [2]
  Velvetleaf plant response rating: 7
velvetleaf; [3]
  Plant response rating, Velvetleaf: 8
velvetleaf; [4]
  Plant response rating, Velvetleaf: 9
velvetleaf; [11]
  Velvetleaf plant response rating: 10
velvetleaf; [12]
  Velvetleaf plant response rating: 10
velvetleaf; [7]
  Velvetleaf plant response rating: 0
cocklebur; [1]
  Plant response rating, Cocklebur: 1
cocklebur; [2]
  Cocklebur plant response rating: 6
cocklebur; [3]
  Plant response rating, Cocklebur: 0
cocklebur; [4]
  Plant response rating, Cocklebur: 0
cocklebur; [12]
  Cocklebur plant response rating: 0
cocklebur; [6]
  Cocklebur plant response rating: 0
cocklebur; [7]
  Cocklebur plant response rating: 0
crabgrass; [1]
  Plant response rating, Crabgrass: 8
crabgrass; [2]
  Crabgrass plant response rating: 8
crabgrass; [3]
  Plant response rating, Crabgrass: 8
crabgrass; [4]
  Plant response rating, Crabgrass: 8
crabgrass; [11]
  Crabgrass plant response rating: 9
crabgrass; [12]
  Crabgrass plant response rating: 10
crabgrass; [6]
  Crabgrass plant response rating: 4
crabgrass; [7]
  Crabgrass plant response rating: 7
Wild oat; [2]
  Wild oats plant response rating: 8
Wild oat; [3]
  Plant response rating, Wild oats: 6
Wild oat; [4]
  Plant response rating, Wild oats: 7
Wild oat; [11]
  Wild oats plant response rating: 10
Wild oat; [12]
  Wild oats plant response rating: 10
Wild oat; [7]
  Wild oats plant response rating: 0
rape; [1]
  Plant response rating, Rape: 3
rape; [2]
  Rape plant response rating: 8
rape; [3]
  Plant response rating, Rape: 8
rape; [4]
  Plant response rating, Rape: 10
rape; [11]
  Rape plant response rating: 10
rape; [12]
  Rape plant response rating: 10
rape; [7]
  Rape plant response rating: 0
Sugar beet; [1]
  Plant response rating, Sugarbeets: 3
Sugar beet; [2]
  Sugarbeets plant response rating: 6
Sugar beet; [3]
  Plant response rating, Sugarbeets: 8
Sugar beet; [4]
  Plant response rating, Sugarbeets: 10
Sugar beet; [11]
  Sugarbeets plant response rating: 10
Sugar beet; [12]
  Sugarbeets plant response rating: 10
Sugar beet; [7]
  Sugarbeets plant response rating: 0
corn; [1]
  Plant response rating, Corn: 3
corn; [2]
  Corn plant response rating: 7
corn; [3]
  Plant response rating, Corn: 4
corn; [4]
  Plant response rating, Corn: 5
corn; [11]
  Corn plant response rating: 8
corn; [12]
  Corn plant response rating: 8
corn; [6]
  Corn plant response rating: 0
corn; [7]
  Corn plant response rating: 0
blackgrass; [1]
  Plant response rating, Blackgrass: 8
blackgrass; [2]
  Blackgrass plant response rating: 10
blackgrass; [3]
  Plant response rating, Blackgrass: 8
blackgrass; [4]
  Plant response rating, Blackgrass: 10
blackgrass; [5]
  Blackgrass plant response rating: 10
blackgrass; [12]
  Blackgrass plant response rating: 10
blackgrass; [6]
  Blackgrass plant response rating: 8
blackgrass; [7]
  Blackgrass plant response rating: 8
Giant foxtail; [1]
  Plant response rating, Giant foxtail: 9
Giant foxtail; [2]
  Giant foxtail plant response rating: 9
Giant foxtail; [3]
  Plant response rating, Giant foxtail: 9
Giant foxtail; [4]
  Plant response rating, Giant foxtail: 10
Giant foxtail; [11]
  Giant foxtail plant response rating: 10
Giant foxtail; [12]
  Giant foxtail plant response rating: 10
Giant foxtail; [6]
  Giant foxtail plant response rating: 8
Giant foxtail; [7]
  Giant foxtail plant response rating: 9
rice; [8]
  Rice plant response rating: 2
rice; [9]
  Rice plant response rating: 0
rice; [10]
  Plant response rating, Rice: 2
morningglory; [1]
  Plant response rating, Morningglory: 9
morningglory; [2]
  Morningglory plant response rating: 10
morningglory; [3]
  Plant response rating, Morningglory: 4
morningglory; [4]
  Plant response rating, Morningglory: 6
morningglory; [11]
  Morningglory plant response rating: 7
morningglory; [12]
  Morningglory plant response rating: 8
morningglory; [7]
  Morningglory plant response rating: 8
Smallflower flatsedge; [8]
  S. Flatsedge plant response rating: 0
Smallflower flatsedge; [9]
  S. Flatsedge plant response rating: 0
Smallflower flatsedge; [10]
  Plant response rating, S. Flatsedge: 0
